Laboratory results from US20260207560A1, “PLURALITY OF GRANULES” (priority 2022, published 2026).
Several values for one entry are separate records, joined by “and”; a condition that tells them apart may be missing. Equal values may be shown once. Marks after values point to notes of the source that are not given here.

Assay: Compatibility of active ingredient with HPMC and gelatin capsule shells (assay, related substances)
Assay type: physicochemical
Conditions: for Assay (%): single vials
Description: Binary mixtures of the active ingredient with the capsules shells were made as follows: • An active ingredient doping solution (active ingredient dissolved in ethanol) was made ([…]). A 100 μL aliquot of this doping was used to ‘spike’ the 10 vials of each capsule shell type as described in Table 5. The nominal quantity of active ingredient per vial was therefore 50 μg. • No doping solution was added to the three control vials of the excipient. • The active vials were left open overnight to evaporate all the ethanol, before closing the vials. • Both the active and placebo control vials were placed on stability for up to 28 days at 25° C. and 50° C.

[1] = HPMC capsule shell, 25° C., 14 days, listed as active ingredient
[2] = HPMC capsule shell, 25° C., 28 days
[3] = HPMC capsule shell, 25° C., 28 days, listed as active ingredient
[4] = HPMC capsule shell, 50° C., 14 days
[5] = HPMC capsule shell, 50° C., 14 days, listed as active ingredient
[6] = HPMC capsule shell, 50° C., 28 days
[7] = HPMC capsule shell, 50° C., 28 days, listed as active ingredient
[8] = HPMC capsule shell, initial, listed as active ingredient
[9] = Hard Gelatin capsule shell, 25° C., 14 days, listed as active ingredient
[10] = Hard Gelatin capsule shell, 25° C., 28 days, listed as active ingredient
[11] = Hard Gelatin capsule shell, 50° C., 14 days
[12] = Hard Gelatin capsule shell, 50° C., 14 days, listed as active ingredient
[13] = Hard Gelatin capsule shell, 50° C., 28 days
[14] = Hard Gelatin capsule shell, 50° C., 28 days, listed as active ingredient
[15] = Hard Gelatin capsule shell, initial
[16] = Hard Gelatin capsule shell, initial, listed as active ingredient

SMILES: CCS(=O)(=O)Nc1ccc2c(c1)nc(C(C)(C)C)n2CC1CCC(F)(F)CC1 [Compound I, N-(2-(tert-butyl)-1-((4,4-difluorocyclohexyl)methyl)-1H-benzimidazol-5-yl)ethanesulfonamide]
- Related substance RRT 1.36 [1]: 0.13% and 0.12%
- Related substances total [1]: 0.82% and 0.80%
- Assay (%) (HPMC capsule shell, 25° C., 14 days): 98.9%
- Assay (%), mean [2]: 99.1%
- Related substance RRT 0.92 [2]: 0.08%
- Related substance RRT 1.04 [2]: 0.07%
- Related substances total [2]: 0.79%
- Related substance RRT 0.98 [3]: 0.3% and 0.31%
- Related substance RRT 1.10 [3]: 0.09% and 0.08%
- Related substance RRT 1.35 [3]: 0.12% and 0.13%
- Related substance RRT 1.36 [3]: 0.12% and 0.13%
- Assay (%) [3]: 99.3% and 99.0%
- Assay (%), mean [4]: 98.8%
- Related substance RRT 0.97 [4]: 0.67* %
- Related substance RRT 1.04 [4]: 0.07%
- Related substance RRT 1.10 [4]: 0.09%
- Related substance RRT 1.36 [4]: 0.12%
- Related substance RRT 0.92 [5]: 0.07% and <0.05%
- Related substance RRT 0.98 [5]: 0.30% and 0.29%
- Related substance RRT 1.35 [5]: 0.13% and 0.12%
- Related substances total [5]: 0.79% and 1.37%
- Assay (%) [5]: 98.9% and 98.7%
- Assay (%), mean [6]: 98.9%
- Related substance RRT 0.92 [6]: 0.07%
- Related substance RRT 1.35 [6]: 0.12%
- Related substance RRT 0.98 [7]: 0.31% and 0.32%
- Related substance RRT 1.04 [7]: 0.07% and 0.09%
- Related substance RRT 1.10 [7]: 0.09% and 0.10%
- Related substance RRT 1.36 [7]: 0.12% and 0.13%
- Related substances total [7]: 0.79% and 0.83%
- Assay (%) [7]: 98.8% and 98.9%
- Assay (%), mean (HPMC capsule shell, initial): 97.8%
- Related substance RRT 1.04 (HPMC capsule shell, initial): 0.07%
- Related substance RRT 1.35 (HPMC capsule shell, initial): 0.13%
- Related substance RRT 1.36 (HPMC capsule shell, initial): 0.13%
- Related substance RRT 0.92 [8]: 0.08% and 0.07%
- Related substance RRT 0.98 [8]: 0.3% and 0.31%
- Related substance RRT 1.10 [8]: 0.09% and 0.10%
- Related substances total [8]: 0.81% and 0.82%
- Assay (%) [8]: 96.5% and 99.0%
- Degradation of the active ingredient (from % assay) (HPMC or gelatin capsules, all conditions and timepoints): no degradation
- Related substance RRT 1.35 (Hard Gelatin capsule shell, 25° C., 14 days): 0.07%
- Related substance RRT 0.92 [9]: 0.05% and <0.05%
- Related substance RRT 0.98 [9]: 0.22% and 0.18%
- Related substance RRT 1.04 [9]: 0.05% and <0.05%
- Related substance RRT 1.10 [9]: 0.10% and 0.09%
- Related substance RRT 1.36 [9]: 0.07% and 0.08%
- Related substances total [9]: 0.56% and 0.42%
- Related substance RRT 1.04 (Hard Gelatin capsule shell, 25° C., 28 days): <0.05%
- Related substance RRT 0.92 [10]: 0.05% and <0.05%
- Related substance RRT 0.98 [10]: 0.18% and 0.14%
- Related substance RRT 1.10 [10]: 0.08% and 0.09%
- Related substance RRT 1.35 [10]: 0.07% and 0.06%
- Related substance RRT 1.36 [10]: 0.08% and 0.07%
- Related substances total [10]: 0.47% and 0.36%
- Related substance RRT 0.92 [11]: <0.05%
- Related substance RRT 1.04 [11]: <0.05%
- Related substance RRT 1.10 [11]: 0.09%
- Related substance RRT 1.35 [11]: 0.06%
- Related substance RRT 1.36 [11]: 0.07%
- Related substance RRT 0.98 [12]: 0.14% and 0.12%
- Related substances total [12]: 0.37% and 0.34%
- Related substance RRT 0.92 [13]: <0.05%
- Related substance RRT 1.04 [13]: <0.05%
- Related substance RRT 1.35 [13]: 0.06%
- Related substance RRT 1.36 [13]: 0.07%
- Related substances total [13]: 0.33%
- Related substance RRT 0.98 [14]: 0.11% and 0.09%
- Related substance RRT 1.10 [14]: 0.09% and 0.11%
- Related substance RRT 1.04 [15]: 0.05%
- Related substance RRT 1.10 [15]: 0.10%
- Related substance RRT 1.36 [15]: 0.08%
- Related substance RRT 0.92 [16]: 0.06% and 0.05%
- Related substance RRT 0.98 [16]: 0.26% and 0.24%
- Related substance RRT 1.35 [16]: 0.08% and 0.07%
- Related substances total [16]: 0.62% and 0.58%
- Total impurities (both capsule types, all incubation times and temperatures): below 1%
